Test results taken from patent US20260258032A1, “TYROSINE KINASE 2 INHIBITORS AND USES THEREOF” (BIOGEN MA INC., priority 2022, published 2026).
pIC50: −log10 of the molar value. Structures can show the parent of a compound that is named as a salt.

Tests used:
[1] = molecular target: T1, JH2 domain of human Tyk2 (Homo sapiens, UniProt P29597); assay: JH2 biochemical assay (TR-FRET probe displacement); type: binding
T1 construct: 10×His-tagged TYK2 JH2 domain (amino acid 575-876)
Summary of the method: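 10×His-tagged human TYK2 JH2 (aa 575-876, 2 nM) incubated 60 min with 2 nM fluorescent probe, 0.1 nM Tb anti-His antibody and compound (10-point 3-fold series from […] top). TR-FRET 520/495 nm ratio, falling with probe displacement, normalized and fitted to a 4-parameter logistic for IC50.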

[2] = tested on: Tyk2 kinase activity on STAT4; assay: pSTAT4 cell assay (MSD, NK92 cells); type: cell-based; conditions: compounds 1 hr
Summary of the method: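 Serum-starved NK92 cells, which natively express Tyk2 and STAT4, were pretreated for 1 h with a 10-point 4-fold dilution series from 10 μM. They were then stimulated with 30 ng/mL IL2 for 15 min. Phospho-STAT in lysates was quantified by MSD with anti-STAT4 antibodies, and IC50 was obtained from 4-parameter logistic fits.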

[3] = TR-FRET probe displacement, JH2 domain of human Tyk2

T1 sequence (P29597 575-876): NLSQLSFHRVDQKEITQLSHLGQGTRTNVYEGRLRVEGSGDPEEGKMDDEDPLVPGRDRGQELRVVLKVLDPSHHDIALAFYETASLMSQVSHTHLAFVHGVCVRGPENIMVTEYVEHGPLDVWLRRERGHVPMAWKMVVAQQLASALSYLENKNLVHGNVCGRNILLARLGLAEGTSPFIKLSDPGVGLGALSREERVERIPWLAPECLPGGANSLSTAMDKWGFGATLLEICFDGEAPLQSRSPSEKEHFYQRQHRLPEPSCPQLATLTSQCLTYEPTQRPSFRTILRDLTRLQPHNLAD

SMILES | pIC50 ([1]; JH2 biochemical assay) | pIC50 ([2]; stimulated 15 minutes) | pIC50 [1, 3] | pIC50 ([2]; then stimulated 15 minutes)
CC(=O)Nc1cc2c(cn1)C1(CC1)CN2c1cc(C)nc(OC2CC(F)(C#N)C2)n1 (centres unmarked) [Example 368, N-(1′-(2-(3-cyano-3-fluorocyclobutoxy)-6-methylpyrimidin-4-yl)-1′,2′-dihydrospiro[cyclopropane-1,3′-pyrrolo[3,2-c]pyridin]-6′-yl)acetamide] | 6.00 to 7.00 | ≤ 6.00 |  | 
CC(=O)Nc1cc2c(cn1)C1(CC1)CN2c1cc(C)nc(OCC2CC2)n1 [Example 369, N-(1′-(2-(cyclopropylmethoxy)-6-methylpyrimidin-4-yl)-1′,2′-dihydrospiro[cyclopropane-1,3′-pyrrolo[3,2-c]pyridin]-6′-yl)acetamide] | 6.00 to 7.00 | ≤ 6.00 |  | 
CC(=O)Nc1cc2c(cn1)C1(CC1)CN2c1cc(C)nc(OC2CC(F)C2)n1 (centres unmarked) [Example 370, N-(1′-(2-(3-fluorocyclobutoxy)-6-methylpyrimidin-4-yl)-1′,2′-dihydrospiro[cyclopropane-1,3′-pyrrolo[3,2-c]pyridin]-6′-yl)acetamide] | 6.00 to 7.00 | ≤ 6.00 |  | 
CC(=O)Nc1cc2c(cn1)C1(CC1)CN2c1cc(C)nc(OCC23CC(C)(CO2)C3)n1 [Example 371, N-(1′-(6-methyl-2-((4-methyl-2-oxabicyclo[2.1.1]hexan-1-yl)methoxy)pyrimidin-4-yl)-1′,2′-dihydrospiro[cyclopropane-1,3′-pyrrolo[3,2-c]pyridin]-6′-yl)acetamide] | ≤ 6.00 | ≤ 6.00 |  | 
COC1CC(COc2nc(C)cc(N3CC4(CC4)c4cnc(NC(C)=O)cc43)n2)C1 (centres unmarked) [Example 372, N-(1′-(2-((3-methoxycyclobutyl)methoxy)-6-methylpyrimidin-4-yl)-1′,2′-dihydrospiro[cyclopropane-1,3′-pyrrolo[3,2-c]pyridin]-6′-yl)acetamide] |  |  | 6.00 to 7.00 | ≤ 6.00
COC(C)(C)COc1nc(C)cc(N2CC3(CC3)c3cnc(NC(C)=O)cc32)n1 [Example 373, N-(1′-(2-(2-methoxy-2-methylpropoxy)-6-methylpyrimidin-4-yl)-1′,2′-dihydrospiro[cyclopropane-1,3′-pyrrolo[3,2-c]pyridin]-6′-yl)acetamide] |  |  | 6.00 to 7.00 | ≤ 6.00
CC(=O)Nc1cc2c(cn1)C1(CC1)CN2c1cc(C)nc(OC2CCOC2)n1 (centres unmarked) [Example 374, N-(1′-(6-methyl-2-((tetrahydrofuran-3-yl)oxy)pyrimidin-4-yl)-1′,2′-dihydrospiro[cyclopropane-1,3′-pyrrolo[3,2-c]pyridin]-6′-yl)acetamide trifluoroacetate] |  |  | 7.00 to 8.00 | ≤ 6.00
CC(=O)Nc1cc2c(cn1)C1(CC1)CN2c1cc(C)nc(OC2CC(C#N)C2)n1 (centres unmarked) [Example 375, N-(1′-(2-(3-cyanocyclobutoxy)-6-methylpyrimidin-4-yl)-1′,2′-dihydrospiro[cyclopropane-1,3′-pyrrolo[3,2-c]pyridin]-6′-yl)acetamide] |  |  | 6.00 to 7.00 | ≤ 6.00
COCC1CC(Oc2nc(C)cc(N3CC4(CC4)c4cnc(NC(C)=O)cc43)n2)C1 (centres unmarked) [Example 376, N-(1′-(2-(3-(methoxymethyl)cyclobutoxy)-6-methylpyrimidin-4-yl)-1′,2′-dihydrospiro[cyclopropane-1,3′-pyrrolo[3,2-c]pyridin]-6′-yl)acetamide] |  |  | 6.00 to 7.00 | ≤ 6.00
CC(=O)Nc1cc2c(cn1)C1(CC1)CN2c1cc(C)nc(OC2CC(F)C2)n1 (centres unmarked) [Example 377, N-(1′-(2-(3-fluorocyclobutoxy)-6-methylpyrimidin-4-yl)-1′,2′-dihydrospiro[cyclopropane-1,3′-pyrrolo[3,2-c]pyridin]-6′-yl)acetamide] |  |  | 7.00 to 8.00 | ≤ 6.00
COC1(COc2nc(C)cc(N3CC4(CC4)c4cnc(NC(C)=O)cc43)n2)CCC1 [Example 378, N-(1′-(2-((1-methoxycyclobutyl)methoxy)-6-methylpyrimidin-4-yl)-1′,2′-dihydrospiro[cyclopropane-1,3′-pyrrolo[3,2-c]pyridin]-6′-yl)acetamide] |  |  | 6.00 to 7.00 | ≤ 6.00
CC(=O)Nc1cc2c(cn1)C1(CC1)CN2c1cc(C)nc(OC2CCCC2)n1 [Example 379, N-(1′-(2-(cyclopentyloxy)-6-methylpyrimidin-4-yl)-1′,2′-dihydrospiro[cyclopropane-1,3′-pyrrolo[3,2-c]pyridin]-6′-yl)acetamide trifluoroacetate] |  |  | 7.00 to 8.00 | ≤ 6.00
CC(=O)Nc1cc2c(cn1)C1(CC1)CN2c1cc(-c2ccncc2F)nc(C(C)(F)F)n1 [Example 381, N-(1′-(2-(1,1-difluoroethyl)-6-(3-fluoropyridin-4-yl)pyrimidin-4-yl)-1′,2′-dihydrospiro[cyclopropane-1,3′-pyrrolo[3,2-c]pyridin]-6′-yl)acetamide trifluoroacetate] |  |  | ≥ 8.00 | ≥ 8.00
CC(=O)Nc1cc2c(cn1)C1(CC1)CN2c1cc(-c2cnn(C3CCC3)c2)nc(C(C)(F)F)n1 [Example 382, N-(1′-(6-(1-cyclobutyl-1H-pyrazol-4-yl)-2-(1,1-difluoroethyl)pyrimidin-4-yl)-1′,2′-dihydrospiro[cyclopropane-1,3′-pyrrolo[3,2-c]pyridin]-6′-yl)acetamide trifluoroacetate] |  |  | ≥ 8.00 | ≥ 8.00
CC(=O)Nc1cc2c(cn1)C1(CC1)CN2c1cc(-c2cnn(C(F)F)c2)nc(C(C)(F)F)n1 [Example 383, N-(1′-(2-(1,1-difluoroethyl)-6-(1-(difluoromethyl)-1H-pyrazol-4-yl)pyrimidin-4-yl)-1′,2′-dihydrospiro[cyclopropane-1,3′-pyrrolo[3,2-c]pyridin]-6′-yl)acetamide trifluoroacetate] |  |  | ≥ 8.00 | 7.00 to 8.00
CC(=O)Nc1cc2c(cn1)C1(CC1)CN2c1cc(-c2cnn(C)c2C(F)F)nc(C(C)(F)F)n1 [Example 385, N-(1′-(2-(1,1-difluoroethyl)-6-(5-(difluoromethyl)-1-methyl-1H-pyrazol-4-yl)pyrimidin-4-yl)-1′,2′-dihydrospiro[cyclopropane-1,3′-pyrrolo[3,2-c]pyridin]-6′-yl)acetamide trifluoroacetate] |  |  | ≥ 8.00 | 7.00 to 8.00
CC(=O)Nc1cc2c(cn1)C1(CC1)CN2c1cc(-c2cnn(C3CC3)c2)nc(C(C)(F)F)n1 [Example 387, N-(1′-(6-(1-cyclopropyl-1H-pyrazol-4-yl)-2-(1,1-difluoroethyl)pyrimidin-4-yl)-1′,2′-dihydrospiro[cyclopropane-1,3′-pyrrolo[3,2-c]pyridin]-6′-yl)acetamide trifluoroacetate] |  |  | ≥ 8.00 | ≥ 8.00
CC(=O)Nc1cc2c(cn1)C1(CC1)CN2c1cc(-c2cnn(C3COC3)c2)nc(C(C)(F)F)n1 [Example 388, N-(1′-(2-(1,1-difluoroethyl)-6-(1-(oxetan-3-yl)-1H-pyrazol-4-yl)pyrimidin-4-yl)-1′,2′-dihydrospiro[cyclopropane-1,3′-pyrrolo[3,2-c]pyridin]-6′-yl)acetamide] |  |  | ≥ 8.00 | ≥ 8.00
CC(=O)Nc1cc2c(cn1)C1(CC1)CN2c1cc(-c2cnn(CC3CC3)c2)nc(C(C)(F)F)n1 [Example 389, N-(1′-(6-(1-(cyclopropylmethyl)-1H-pyrazol-4-yl)-2-(1,1-difluoroethyl)pyrimidin-4-yl)-1′,2′-dihydrospiro[cyclopropane-1,3′-pyrrolo[3,2-c]pyridin]-6′-yl)acetamide] |  |  | ≥ 8.00 | ≥ 8.00
